This passage reports IC50 results from ChEMBL document CHEMBL1157122, “The contribution of a 2-amino group on receptor tyrosine kinase inhibition and antiangiogenic activity in 4-anilinosubstituted pyrrolo[2,3-d]pyrimidines” (Bioorg Med Chem Lett, 2010).

The target of assay [1] is Platelet-derived growth factor receptor beta (Homo sapiens, UniProt P09619). The assay can be described thus: Inhibition of PDGFRbeta.
In a further assay the test system is A-431. The assay can be described thus: cells. The settings on record: Homo sapiens.
The target in assay [2] is T1, Epidermal growth factor receptor (Homo sapiens, UniProt P00533). Nature of the assay: cell-based.
Assay [3] has as its target Vascular endothelial growth factor receptor 1 (Homo sapiens, UniProt P17948). Nature of the assay: cell-based.
Assay [4] has as its target T2, Vascular endothelial growth factor receptor 2 (Homo sapiens, UniProt P35968). Nature of the assay: cell-based.
For assay [5], the target named is T1, Epidermal growth factor receptor.
The target in assay [6] is T2, Vascular endothelial growth factor receptor 2.
Assay [7] has as its system chorioallantoic membrane (Gallus gallus). The assay can be described thus: cells. The settings on record: Homo sapiens, A-431.

SMILES strings stand for the structures.

T2 sequence (P35968 whole entry): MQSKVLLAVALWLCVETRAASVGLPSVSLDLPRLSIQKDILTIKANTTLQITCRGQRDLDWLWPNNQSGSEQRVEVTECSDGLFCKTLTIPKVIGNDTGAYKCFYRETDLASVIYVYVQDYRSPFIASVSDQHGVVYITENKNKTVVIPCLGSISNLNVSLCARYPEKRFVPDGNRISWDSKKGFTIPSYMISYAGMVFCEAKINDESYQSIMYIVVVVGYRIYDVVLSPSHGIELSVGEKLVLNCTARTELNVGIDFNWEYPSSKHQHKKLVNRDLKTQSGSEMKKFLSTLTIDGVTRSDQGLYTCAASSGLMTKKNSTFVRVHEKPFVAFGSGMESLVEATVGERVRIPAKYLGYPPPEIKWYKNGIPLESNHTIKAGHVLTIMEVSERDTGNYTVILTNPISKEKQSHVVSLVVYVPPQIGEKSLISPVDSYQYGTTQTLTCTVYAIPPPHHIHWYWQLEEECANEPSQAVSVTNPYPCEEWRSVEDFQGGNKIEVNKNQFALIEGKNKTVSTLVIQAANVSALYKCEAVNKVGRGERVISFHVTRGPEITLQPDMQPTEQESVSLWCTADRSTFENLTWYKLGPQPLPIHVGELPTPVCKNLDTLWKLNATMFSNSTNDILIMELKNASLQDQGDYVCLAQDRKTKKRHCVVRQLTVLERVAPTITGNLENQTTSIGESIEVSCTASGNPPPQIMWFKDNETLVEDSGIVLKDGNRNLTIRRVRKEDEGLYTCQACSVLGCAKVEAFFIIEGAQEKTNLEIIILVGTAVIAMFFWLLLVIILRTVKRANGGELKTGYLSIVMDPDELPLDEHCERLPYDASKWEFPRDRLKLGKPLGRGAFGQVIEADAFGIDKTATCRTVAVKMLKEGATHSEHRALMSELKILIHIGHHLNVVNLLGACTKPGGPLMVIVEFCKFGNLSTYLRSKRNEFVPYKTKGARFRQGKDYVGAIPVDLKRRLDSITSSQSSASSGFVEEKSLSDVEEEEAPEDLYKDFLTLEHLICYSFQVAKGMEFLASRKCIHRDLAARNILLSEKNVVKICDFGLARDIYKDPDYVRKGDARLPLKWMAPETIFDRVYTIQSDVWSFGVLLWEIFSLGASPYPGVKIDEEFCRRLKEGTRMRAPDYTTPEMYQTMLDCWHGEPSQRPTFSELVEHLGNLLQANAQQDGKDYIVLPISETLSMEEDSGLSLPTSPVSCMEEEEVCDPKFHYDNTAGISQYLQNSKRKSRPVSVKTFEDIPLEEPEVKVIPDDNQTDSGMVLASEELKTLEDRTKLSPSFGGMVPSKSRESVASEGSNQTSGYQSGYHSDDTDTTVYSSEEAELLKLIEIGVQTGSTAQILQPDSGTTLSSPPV
Sequence of Platelet-derived growth factor receptor beta (P09619 whole entry): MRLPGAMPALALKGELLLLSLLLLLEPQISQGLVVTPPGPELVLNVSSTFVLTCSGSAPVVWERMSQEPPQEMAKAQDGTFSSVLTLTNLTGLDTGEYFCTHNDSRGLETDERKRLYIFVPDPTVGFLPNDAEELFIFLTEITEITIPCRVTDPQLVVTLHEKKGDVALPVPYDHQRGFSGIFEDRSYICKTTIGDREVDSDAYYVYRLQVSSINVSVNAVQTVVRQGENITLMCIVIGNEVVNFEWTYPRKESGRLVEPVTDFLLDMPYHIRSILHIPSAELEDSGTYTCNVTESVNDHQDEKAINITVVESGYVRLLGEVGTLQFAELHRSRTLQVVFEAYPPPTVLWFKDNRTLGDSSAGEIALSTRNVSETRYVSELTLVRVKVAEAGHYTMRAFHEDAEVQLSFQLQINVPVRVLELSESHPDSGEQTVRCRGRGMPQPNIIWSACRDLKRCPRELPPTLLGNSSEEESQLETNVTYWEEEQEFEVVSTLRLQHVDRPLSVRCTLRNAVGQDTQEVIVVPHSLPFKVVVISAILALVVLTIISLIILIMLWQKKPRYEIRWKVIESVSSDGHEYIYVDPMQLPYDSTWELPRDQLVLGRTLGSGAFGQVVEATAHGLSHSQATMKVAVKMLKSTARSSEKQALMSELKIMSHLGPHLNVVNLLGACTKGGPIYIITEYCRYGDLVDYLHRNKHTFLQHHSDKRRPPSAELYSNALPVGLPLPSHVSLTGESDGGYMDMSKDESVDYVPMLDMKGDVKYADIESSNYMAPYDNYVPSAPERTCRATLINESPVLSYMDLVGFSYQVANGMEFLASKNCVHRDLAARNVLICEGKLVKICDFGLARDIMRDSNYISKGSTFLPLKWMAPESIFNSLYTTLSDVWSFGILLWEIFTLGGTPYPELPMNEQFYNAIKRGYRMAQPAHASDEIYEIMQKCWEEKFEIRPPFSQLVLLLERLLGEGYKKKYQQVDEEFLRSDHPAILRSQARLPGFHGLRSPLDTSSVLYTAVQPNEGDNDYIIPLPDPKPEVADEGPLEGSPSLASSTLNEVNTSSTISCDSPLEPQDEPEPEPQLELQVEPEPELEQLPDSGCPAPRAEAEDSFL
T1 sequence (P00533 whole entry): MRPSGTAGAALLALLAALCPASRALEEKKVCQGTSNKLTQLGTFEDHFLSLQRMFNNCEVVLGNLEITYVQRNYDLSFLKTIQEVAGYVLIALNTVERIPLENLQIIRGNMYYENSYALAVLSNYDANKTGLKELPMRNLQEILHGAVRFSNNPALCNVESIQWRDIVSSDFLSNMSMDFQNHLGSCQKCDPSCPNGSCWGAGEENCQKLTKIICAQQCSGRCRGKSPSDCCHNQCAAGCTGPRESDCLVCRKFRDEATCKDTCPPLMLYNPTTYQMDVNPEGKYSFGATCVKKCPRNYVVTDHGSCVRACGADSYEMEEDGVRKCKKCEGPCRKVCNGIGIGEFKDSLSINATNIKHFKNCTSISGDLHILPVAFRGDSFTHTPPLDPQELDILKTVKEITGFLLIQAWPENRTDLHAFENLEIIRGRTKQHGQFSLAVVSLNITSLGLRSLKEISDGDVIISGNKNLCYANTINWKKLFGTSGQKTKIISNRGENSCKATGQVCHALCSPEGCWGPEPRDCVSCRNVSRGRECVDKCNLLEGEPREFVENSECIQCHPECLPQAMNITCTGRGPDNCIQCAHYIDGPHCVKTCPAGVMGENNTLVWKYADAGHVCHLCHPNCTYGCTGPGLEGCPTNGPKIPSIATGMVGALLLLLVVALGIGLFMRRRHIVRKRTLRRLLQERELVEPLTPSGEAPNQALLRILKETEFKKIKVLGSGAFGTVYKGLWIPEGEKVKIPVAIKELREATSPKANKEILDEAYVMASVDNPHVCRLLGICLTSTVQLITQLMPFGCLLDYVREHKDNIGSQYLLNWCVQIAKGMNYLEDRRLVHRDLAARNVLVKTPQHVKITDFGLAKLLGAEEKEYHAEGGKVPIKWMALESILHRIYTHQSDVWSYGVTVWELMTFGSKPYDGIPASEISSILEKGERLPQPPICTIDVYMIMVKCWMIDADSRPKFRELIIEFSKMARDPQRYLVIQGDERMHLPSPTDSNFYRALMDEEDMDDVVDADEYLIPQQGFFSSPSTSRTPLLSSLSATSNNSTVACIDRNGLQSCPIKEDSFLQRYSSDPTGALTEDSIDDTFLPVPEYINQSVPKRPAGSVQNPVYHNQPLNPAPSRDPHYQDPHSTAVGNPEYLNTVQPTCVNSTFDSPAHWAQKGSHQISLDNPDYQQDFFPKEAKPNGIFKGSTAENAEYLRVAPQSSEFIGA
Sequence of Vascular endothelial growth factor receptor 1 (P17948 whole entry): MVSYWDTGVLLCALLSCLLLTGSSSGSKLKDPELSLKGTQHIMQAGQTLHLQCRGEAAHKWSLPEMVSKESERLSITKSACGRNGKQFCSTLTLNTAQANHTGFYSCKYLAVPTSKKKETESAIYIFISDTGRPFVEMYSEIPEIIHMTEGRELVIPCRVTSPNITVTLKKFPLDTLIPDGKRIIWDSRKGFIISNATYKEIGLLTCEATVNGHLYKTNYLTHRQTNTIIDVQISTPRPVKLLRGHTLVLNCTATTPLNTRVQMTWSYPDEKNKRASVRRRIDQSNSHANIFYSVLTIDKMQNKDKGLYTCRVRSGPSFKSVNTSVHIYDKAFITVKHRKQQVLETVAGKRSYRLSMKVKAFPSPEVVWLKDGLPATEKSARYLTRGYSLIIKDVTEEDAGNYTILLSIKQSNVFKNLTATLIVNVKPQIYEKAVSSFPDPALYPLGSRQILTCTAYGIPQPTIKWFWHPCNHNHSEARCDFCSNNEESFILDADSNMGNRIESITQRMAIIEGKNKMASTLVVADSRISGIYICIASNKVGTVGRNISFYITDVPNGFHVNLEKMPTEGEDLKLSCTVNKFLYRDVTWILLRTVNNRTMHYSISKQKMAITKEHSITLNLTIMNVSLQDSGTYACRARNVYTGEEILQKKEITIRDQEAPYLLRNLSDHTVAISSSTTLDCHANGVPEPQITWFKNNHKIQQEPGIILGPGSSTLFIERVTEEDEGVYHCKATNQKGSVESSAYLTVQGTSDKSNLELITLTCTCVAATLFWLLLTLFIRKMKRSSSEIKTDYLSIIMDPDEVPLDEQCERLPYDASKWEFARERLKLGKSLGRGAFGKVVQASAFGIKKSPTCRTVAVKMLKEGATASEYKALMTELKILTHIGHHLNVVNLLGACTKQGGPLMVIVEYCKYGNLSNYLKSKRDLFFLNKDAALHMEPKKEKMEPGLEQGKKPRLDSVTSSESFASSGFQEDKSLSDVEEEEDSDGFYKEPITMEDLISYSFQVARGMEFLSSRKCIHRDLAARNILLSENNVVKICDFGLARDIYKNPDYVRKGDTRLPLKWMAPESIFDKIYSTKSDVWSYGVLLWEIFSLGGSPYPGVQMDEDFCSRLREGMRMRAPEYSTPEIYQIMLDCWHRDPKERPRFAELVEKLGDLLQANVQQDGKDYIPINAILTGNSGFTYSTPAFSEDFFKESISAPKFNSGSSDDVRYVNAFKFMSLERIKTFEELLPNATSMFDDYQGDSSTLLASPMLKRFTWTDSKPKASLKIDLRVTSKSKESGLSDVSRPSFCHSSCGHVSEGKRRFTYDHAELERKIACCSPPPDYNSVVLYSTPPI

As for `Brc1cccc(Nc2ncnc3[nH]c(CCc4ccccc4)cc23)c1`, the IC50 is 8.5 µM in assay [1]; above 500 µM in the assay with A-431; above 200 µM in assay [2]; 129 µM in assay [3]; 112 µM in assay [4].

As to `Fc1ccc(Nc2ncnc3[nH]c(CCc4ccccc4)cc23)cc1C(F)(F)F`, the 50% inhibitory concentration (IC50) in assay [1] was above 500 µM; in the assay with A-431, above 500 µM; in assay [2], above 200 µM; in assay [3], 164 µM; in assay [4], 57.5 µM.

Turning to `Fc1cc(Cl)ccc1Nc1ncnc2[nH]c(CCc3ccccc3)cc12`, the IC50 was above 500 µM in assay [1], above 200 µM in assay [2], above 200 µM in assay [3] and 40.5 µM in assay [4].

`Fc1ccc(Nc2ncnc3[nH]c(CCc4ccccc4)cc23)cc1Br`: the IC50 in assay [1] is 192 µM; in the assay on A-431 it was above 500 µM; in assay [2] it was above 200 µM; in assay [3] it was above 200 µM; in assay [4] it was 25.2 µM.

For the compound `C#Cc1cccc(Nc2ncnc3[nH]c(CCc4ccccc4)cc23)c1`, the IC50 in assay [1] is above 500 µM; with A-431, above 500 µM; in assay [2], above 200 µM; in assay [3], 142 µM; in assay [4], 49.4 µM.

`c1ccc(CCc2cc3c(Nc4ccc5[nH]ccc5c4)ncnc3[nH]2)cc1`: the IC50 came to 104 µM in assay [1], 56.1 µM in assay [2], 224 µM in assay [3] and 31.6 µM in assay [4].

For the compound `FC(F)(F)c1cccc(Nc2ncnc3[nH]c(CCc4ccccc4)cc23)c1`, the IC50 in assay [1] is above 500 µM; in the assay on A-431 it was above 500 µM; in assay [2], above 200 µM; in assay [3] it was above 200 µM; in assay [4], 22.1 µM.

For the compound `Nc1nc(Nc2ccc(F)c(Br)c2)c2cc(CCc3ccccc3)[nH]c2n1`, the IC50 in assay [5] was found to be 22.8 µM; in assay [6], 132 µM.

`Nc1nc(Nc2cccc(Br)c2)c2cc(CCc3ccccc3)[nH]c2n1` showed an IC50 in assay [7] of 19.5 µM.

The term IC50 denotes the concentration needed to halve the response being measured.
